Assay results: patent publication US20240199692A1 (priority 2019, published 2024)
*1 amine or outer side, *2 acyl side, *3 side chain or, on linkers, in order; H or OH if unused. Where a SMILES comes first, the peptide text is derived from it. Bridges are numbered along the chain shown (N, C = ends). [ ]: non-standard residue; d: D form. The star is where a group is joined. Benzoyl(4-(4-EtNHCO-PhO)) = CCNC(=O)c1ccc(Oc2ccc(C(=O)*)cc2)cc1; Benzoyl(4-O-C6H4-4-CONHMe) = CNC(=O)c1ccc(Oc2ccc(C(=O)*)cc2)cc1; Benzenesulfonyl(4-OPh) = O=S(=O)(c1ccc(Oc2ccccc2)cc1)*; X14 = CN(C)C(=O)c1ccc(C(=O)Nc2ccc(S(=O)(=O)*)cc2)cc1; X2 = CCOc1ccc(C(=O)Nc2ccc(S(=O)(=O)*)cc2)cc1; Benzoyl(4-OPh) = O=C(c1ccc(Oc2ccccc2)cc1)*; d(γGlu) = O=C(O)[C@@H](CCC(=O)[*:2])N[*:1]; d(βAsp) = O=C(O)[C@@H](CC(=O)[*:2])N[*:1]; NMeW = CN[C@@H](Cc1c[nH]c2ccccc12)C(=O)O; X5 = O=S(=O)(c1ccc(-c2ccc(CO)cc2)cc1)*; NMeY = CN[C@@H](Cc1ccc(O)cc1)C(=O)O; NMeGABA = CN(CCCC(=O)[*:2])[*:1]; NMeI = CC[C@H](C)[C@H](NC)C(=O)O; NMeE = CN[C@@H](CCC(=O)O)C(=O)O; NMeD = CN[C@@H](CC(=O)O)C(=O)O; NMeN = CN[C@@H](CC(N)=O)C(=O)O; NMeL = CN[C@@H](CC(C)C)C(=O)O; Dap(Me) = CNC[C@H](N)C(=O)O; β3hP = O=C(O)C[C@@H]1CCCN1; NMeA = CN[C@@H](C)C(=O)O; Dab = NCC[C@H](N)C(=O)O; Dap = NC[C@H](N)C(=O)O; Ava = NCCCCC(=O)O; GABA = NCCCC(=O)O; βAla = NCCC(=O)O

Biological target: T1, MMP2 (Homo sapiens, UniProt P08253)
T1 sequence (P08253 110-660): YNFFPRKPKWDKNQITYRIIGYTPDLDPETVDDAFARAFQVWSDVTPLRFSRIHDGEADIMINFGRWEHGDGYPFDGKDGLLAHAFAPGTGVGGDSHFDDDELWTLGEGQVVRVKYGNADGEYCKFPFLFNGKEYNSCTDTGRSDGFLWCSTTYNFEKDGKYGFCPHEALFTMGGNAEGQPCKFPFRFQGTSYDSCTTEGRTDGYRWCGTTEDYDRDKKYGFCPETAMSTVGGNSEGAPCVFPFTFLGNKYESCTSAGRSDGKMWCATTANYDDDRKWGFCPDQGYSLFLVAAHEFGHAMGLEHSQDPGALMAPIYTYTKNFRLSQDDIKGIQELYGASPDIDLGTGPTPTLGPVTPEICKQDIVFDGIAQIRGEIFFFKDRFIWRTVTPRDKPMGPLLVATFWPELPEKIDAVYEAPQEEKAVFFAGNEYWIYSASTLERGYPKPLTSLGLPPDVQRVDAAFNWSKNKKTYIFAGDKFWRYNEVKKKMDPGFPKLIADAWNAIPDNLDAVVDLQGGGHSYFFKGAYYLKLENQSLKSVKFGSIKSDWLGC
Assay: Inhibitory effects on human MMP2 (Method 1), enzyme assay with MOCAc-Pro-Leu-Gly-Leu-A2pr(Dnp)-Ala-Arg-NH2 substrate, 96-well
Format: biochemical
Details: not given
Protocol: In a reaction solution [50 mmol/L Tris-HCl (pH 7.5), 150 mmol/L NaCl, 10 mmol/L CaCl2, 0.05% Brij L23], 100 μg/mL human recombinant MMP2 enzyme and 1 mmol/L 4-Aminophenylmercuric acetate were mixed together, and reacted at 37° C. for 60 minutes. The human MMP2 activated through the reaction was poured into a 96-well microplate to reach a final concentration of 0.7 or 7 ng/mL.

Row | SMILES | IC50 [pM]
1 | CC[C@H](C)[C@@H](C(=O)N1CCC[C@H]1CC(N)=O)N(C)C(=O)[C@H](CC(C)C)NC(=O)[C@H](CCN)NC(=O)[C@H](CC(=O)O)NC(=O)[C@H](CC(N)=O)NC(=O)CCCNC(=O)c1ccc(Oc2ccccc2)cc1 [Compound 106] | 160

Same assay, conditions: Test Example No. 1-1 (Method 1, 96-well microplate); read-out: Human MMP2, IC50

Row | SMILES | IC50 [pM]
2 | CC[C@H](C)[C@@H](C(=O)N1CCC[C@H]1CC(N)=O)N(C)C(=O)[C@H](CC(C)C)NC(=O)[C@H](CNC)NC(=O)[C@H](CC(=O)O)NC(=O)[C@H](CC(N)=O)N(C)C(=O)CCCNC(=O)c1ccc(Oc2ccccc2)cc1 [Compound 154] ({Benzoyl(4-OPh)-GABA}-[NMeN]D[Dap(Me)]L[NMeI][β3hP]-NH2; N-terminus assumed) | 440
3 | CCNC(=O)c1ccc(Oc2ccc(C(=O)NCCCCC(=O)N[C@@H](CCCNC(=N)N)C(=O)N[C@@H](CC(=O)O)C(=O)N[C@@H](CCN)C(=O)N[C@@H](CC(C)C)C(=O)N(C)[C@H](C(=O)N3CCC[C@H]3CC(N)=O)[C@@H](C)CC)cc2)cc1 [Compound 197] ({Benzoyl(4-(4-EtNHCO-PhO))-Ava}-RD[Dab]L[NMeI][β3hP]-NH2; N-terminus assumed) | 2600
4 | CNC(=O)c1ccc(Oc2ccc(C(=O)NCCCCC(=O)N[C@@H](CCCNC(=N)N)C(=O)N[C@@H](CC(=O)O)C(=O)N[C@@H](CCN)C(=O)N[C@@H](CC(C)C)C(=O)N(C)[C@@H](CCC(=O)O)C(=O)N3CCC[C@H]3CC(N)=O)cc2)cc1 [Compound 188] ({Benzoyl(4-O-C6H4-4-CONHMe)-Ava}-RD[Dab]L[NMeE][β3hP]-NH2; N-terminus assumed) | 810
5 | CC[C@H](C)[C@@H](C(=O)N1CCC[C@H]1C(N)=O)N(C)C(=O)[C@H](CC(C)C)NC(=O)[C@H](C)NC(=O)[C@H](CC(=O)O)NC(=O)[C@H](CCC(=O)O)N(C)C(=O)CCCNC(=O)c1ccc(Oc2ccccc2)cc1 [Compound 126] ({Benzoyl(4-OPh)-GABA}-[NMeE]DAL[NMeI]P-NH2; N-terminus assumed) | 290
6 | CC[C@H](C)[C@@H](C(=O)N1CCC[C@H]1CC(N)=O)N(C)C(=O)[C@H](CC(C)C)NC(=O)[C@H](CCN)NC(=O)C[C@@H](NS(=O)(=O)c1ccc(-c2ccc(CO)cc2)cc1)C(=O)O [Compound 642] ({X5-d(βAsp)}-[Dab]L[NMeI][β3hP]-NH2; N-terminus assumed) | 1600
7 | CC[C@H](C)[C@@H](C(=O)N1CCC[C@H]1C(N)=O)N(C)C(=O)[C@H](CC(C)C)NC(=O)[C@H](CCN)NC(=O)[C@H](CC(=O)O)NC(=O)[C@H](CC(N)=O)NC(=O)CCCNC(=O)c1ccc(Oc2ccccc2)cc1 [Compound 107] ({Benzoyl(4-OPh)-GABA}-ND[Dab]L[NMeI]P-NH2; N-terminus assumed) | 320
8 | CC[C@H](C)[C@@H](C(=O)N1CCC[C@H]1C(N)=O)N(C)C(=O)[C@H](CC(C)C)NC(=O)[C@H](C)NC(=O)[C@H](CC(=O)O)NC(=O)[C@H](C)N(C)C(=O)CCCN(C)C(=O)c1ccc(Oc2ccccc2)cc1 [Compound 100] ({Benzoyl(4-OPh)}-[NMeGABA][NMeA]DAL[NMeI]P-NH2; N-terminus assumed) | 1200
9 | CC(C)C[C@H](NC(=O)[C@H](CN)NC(=O)C[C@@H](NS(=O)(=O)c1ccc(NC(=O)c2ccc(C(=O)N(C)C)cc2)cc1)C(=O)O)C(=O)N(C)[C@@H](CCC(=O)O)C(=O)N1CCC[C@H]1CC(N)=O [Compound 679] ({X14-d(βAsp)}-[Dap]L[NMeE][β3hP]-NH2; N-terminus assumed) | 1500
10 | CCOc1ccc(C(=O)Nc2ccc(S(=O)(=O)N[C@H](CCC(=O)N[C@@H](CCN)C(=O)N[C@@H](CC(C)C)C(=O)N(C)[C@@H](CCC(=O)O)C(=O)N3CCC[C@H]3CC(N)=O)C(=O)O)cc2)cc1 [Compound 702] ({X2-d(γGlu)}-[Dab]L[NMeE][β3hP]-NH2; N-terminus assumed) | 250
11 | CC[C@H](C)[C@@H](C(=O)N1CCC[C@H]1C(N)=O)N(C)C(=O)[C@H](CC(C)C)NC(=O)[C@H](CCN)NC(=O)[C@H](CC(=O)O)NC(=O)[C@H](CC(C)C)N(C)C(=O)CCCNC(=O)c1ccc(Oc2ccccc2)cc1 [Compound 136] ({Benzoyl(4-OPh)-GABA}-[NMeL]D[Dab]L[NMeI]P-NH2; N-terminus assumed) | 4700
12 | CC(C)C[C@H](NC(=O)[C@H](CCN)NC(=O)[C@H](CC(=O)O)NC(=O)[C@H](CC(N)=O)NC(=O)CCCNC(=O)c1ccc(Oc2ccccc2)cc1)C(=O)N(C)[C@@H](CCC(=O)O)C(=O)N1CCC[C@H]1CC(N)=O [Compound 108] ({Benzoyl(4-OPh)-GABA}-ND[Dab]L[NMeE][β3hP]-NH2) | 190
13 | CC[C@H](C)[C@@H](C(=O)N1CCC[C@H]1C(N)=O)N(C)C(=O)[C@H](CC(C)C)NC(=O)[C@H](C)NC(=O)[C@H](CC(=O)O)NC(=O)[C@@H]1CCCN1C(=O)CCCNC(=O)c1ccc(Oc2ccccc2)cc1 [Compound 117] ({Benzoyl(4-OPh)-GABA}-PDAL[NMeI]P-NH2; N-terminus assumed) | 550
14 | CC[C@H](C)[C@@H](C(=O)N1CCC[C@H]1C(N)=O)N(C)C(=O)[C@H](CC(C)C)NC(=O)[C@H](C)NC(=O)[C@H](CC(=O)O)NC(=O)[C@H](Cc1c[nH]c2ccccc12)N(C)C(=O)CCCNC(=O)c1ccc(Oc2ccccc2)cc1 [Compound 130] ({Benzoyl(4-OPh)-GABA}-[NMeW]DAL[NMeI]P-NH2; N-terminus assumed) | 360
15 | CC[C@H](C)[C@@H](C(=O)N1CCC[C@H]1C(N)=O)N(C)C(=O)[C@H](CC(C)C)NC(=O)[C@H](C)NC(=O)[C@H](CC(=O)O)NC(=O)[C@H](C)N(C)C(=O)CCCNC(=O)c1ccc(Oc2ccccc2)cc1 [Compound 92] ({Benzoyl(4-OPh)-GABA}-[NMeA]DAL[NMeI]P-NH2; N-terminus assumed) | 310
16 | CC(C)C[C@H](NC(=O)[C@H](CCN)NC(=O)[C@H](CC(=O)O)NC(=O)[C@@H](NC(=O)CCCNC(=O)c1ccc(Oc2ccccc2)cc1)C(C)C)C(=O)N(C)[C@@H](CCC(=O)O)C(=O)N1CCC[C@H]1CC(N)=O [Compound 143] ({Benzoyl(4-OPh)-GABA}-VD[Dab]L[NMeE][β3hP]-NH2; N-terminus assumed) | 2600
17 | CCOc1ccc(C(=O)Nc2ccc(S(=O)(=O)N[C@H](CCC(=O)N[C@@H](CCN)C(=O)N[C@@H](CC(C)C)C(=O)N(C)[C@H](C(=O)N3CCC[C@H]3CC(N)=O)[C@@H](C)CC)C(=O)O)cc2)cc1 [Compound 698] ({X2-d(γGlu)}-[Dab]L[NMeI][β3hP]-NH2; N-terminus assumed) | 310
18 | CC[C@H](C)[C@@H](C(=O)N1CCC[C@H]1C(N)=O)N(C)C(=O)[C@H](CC(C)C)NC(=O)[C@H](C)NC(=O)[C@H](CC(=O)O)NC(=O)[C@H](Cc1ccc(O)cc1)N(C)C(=O)CCCNC(=O)c1ccc(Oc2ccccc2)cc1 [Compound 129] ({Benzoyl(4-OPh)-GABA}-[NMeY]DAL[NMeI]P-NH2) | 460
19 | CC[C@H](C)[C@@H](C(=O)N1CCC[C@H]1CC(N)=O)N(C)C(=O)[C@H](CC(C)C)NC(=O)[C@H](CCN)NC(=O)[C@H](CC(=O)O)NC(=O)[C@H](NC(=O)CCCCNS(=O)(=O)c1ccc(Oc2ccccc2)cc1)[C@H](C)O [Compound 85] ({Benzenesulfonyl(4-OPh)-Ava}-[dT]D[Dab]L[NMeI][β3hP]-NH2; N-terminus assumed) | 490
20 | CC[C@H](C)[C@@H](C(=O)N1CCC[C@H]1C(N)=O)N(C)C(=O)[C@H](CC(C)C)NC(=O)[C@H](C)NC(=O)[C@H](CC(=O)O)NC(=O)[C@@H](CC(N)=O)NC(=O)CCCNC(=O)c1ccc(Oc2ccccc2)cc1 [Compound 114] ({Benzoyl(4-OPh)-GABA}-[dN]DAL[NMeI]P-NH2; N-terminus assumed) | 72

Same assay, conditions: Test Example No. 1-1 (Method 1, 96-well); read-out: Human MMP2, IC50

Row | SMILES | IC50 [pM]
21 | CC[C@H](C)[C@@H](C(=O)N1CCC[C@H]1CC(N)=O)N(C)C(=O)[C@@H]1CCCCNC(=O)CNC(=O)CC[C@H](NC(=O)CCCNS(=O)(=O)c2ccc(Oc3ccccc3)cc2)C(=O)N[C@@H](CC(=O)O)C(=O)N[C@@H](C)C(=O)N1 [Compound 892, [(2S,5S,8S,20S)-8-[{(2S,3S)-1-[(2S)-2-(2-amino-2-oxoethyl)pyrrolidin-1-yl]-3-methyl-1-oxopentan-2-yl}(methyl)carbamoyl]-5-methyl-3,6,14,17,21-pentaoxo-20-{4-[(4-phenoxybenzene-1-sulfonyl)amino]butanamido}-1,4,7,13,16-pentaazacyclohenicosan-2-yl]acetic acid] ({Benzenesulfonyl(4-OPh)-GABA}-EDAK[NMeI][β3hP]-NH2; linker 1-4 via G) | 1700
22 | CC[C@H](C)[C@@H](C(=O)N1CCC[C@H]1CC(=O)O)N(C)C(=O)[C@@H]1CCCCNC(=O)CNC(=O)CC[C@H](NC(=O)CCCNS(=O)(=O)c2ccc(Oc3ccccc3)cc2)C(=O)N[C@@H](CC(=O)O)C(=O)N[C@@H](C)C(=O)N1 [Compound 891] ({Benzenesulfonyl(4-OPh)-GABA}-EDAK[NMeI][β3hP]-OH; linker 1-4 via G) | 1600
23 | CN(C(=O)[C@@H]1CCCCNC(=O)CCNC(=O)CC[C@H](NC(=O)CCCNS(=O)(=O)c2ccc(Oc3ccccc3)cc2)C(=O)N[C@@H](CC(=O)O)C(=O)N[C@@H](CCN)C(=O)N1)[C@@H](CC(=O)O)C(=O)N1CCC[C@H]1CC(N)=O [Compound 895] ({Benzenesulfonyl(4-OPh)-GABA}-ED[Dab]K[NMeD][β3hP]-NH2; linker 1-4 via βAla (inferred); N-terminus assumed) | 1300
